Test results as given in publication PMC7994357, “Gene Expression, Biochemical Characterization of a sn-1, 3 Extracellular Lipase From Aspergillus niger GZUF36 and Its Model-Structure Analysis” (Frontiers in Microbiology, 2021).

Molecular target: T1, PEXANL1 (Aspergillus niger, UniProt A0A5C2GD86)
T1 construct: mature peptide (278 residues of 297, signal peptide removed), extra N-terminal residues, C-terminal 6xHis kept; secreted from Pichia pastoris GS115 (pPIC9K, codon-optimised), Ni-NTA purified, Endo Hf deglycosylated
T1 sequence (A0A5C2GD86 20-297): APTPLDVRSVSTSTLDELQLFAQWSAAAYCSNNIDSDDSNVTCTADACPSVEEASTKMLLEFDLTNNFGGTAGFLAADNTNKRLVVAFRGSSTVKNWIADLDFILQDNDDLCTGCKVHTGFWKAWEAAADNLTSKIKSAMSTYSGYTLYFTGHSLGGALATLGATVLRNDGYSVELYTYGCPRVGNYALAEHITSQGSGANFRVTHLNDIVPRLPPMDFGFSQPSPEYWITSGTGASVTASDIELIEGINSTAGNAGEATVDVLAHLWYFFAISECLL
Assay: ultrasound-assisted solvent-free esterification, HPLC of glycerides
Format: biochemical
Settings: 40 °C, ultrasound 200 W, 40 kHz

Structure (SMILES) | ultrasound-assisted solvent-free esterification, HPLC of glycerides (co-substrate oleic acid (glycerol to oleic acid 5:1 molar)) | ultrasound-assisted solvent-free esterification, HPLC of glycerides (co-substrate glycerol (glycerol to oleic acid 5:1 molar))
OCC(O)CO [glycerol] | Ultrasound-assisted esterification of oleic acid (OA) with glycerol was studied | –
CCCCCCCC/C=C\CCCCCCCC(=O)O [oleic acid] | – | Ultrasound-assisted esterification of oleic acid (OA) with glycerol was studied
